Results published in patent US9212205B2, “Nucleic acid binding compounds and methods of use” (University of Rochester, priority 2007, dated 2015).

Key:
[1] = target: (CUG)109 RNA (SEQ ID NO:8)-MBNL1 protein interaction; assay: Enzyme Fragmentation Complementation (EFC) assay of (CUG)109-MBNL1 binding inhibition; type: biochemical
Procedure: Small molecule-mediated inhibition of (CUG)109-MBNL1 binding was determined using an Enzyme Fragmentation Complementation (EFC) assay (Eglen et al., “β-Galactosidase Enzyme Fragment Complementation as A Novel Technology for High Throughput Screening,” Comb. Chem. High Throughput Screening 6:381-387 (2003), which is hereby incorporated by reference in its entirety). Briefly, this was performed by first immobilizing (CUG)109 RNA (SEQ ID NO:8) to a 96 well plate. Next, the immobilized RNA was incubated with recombinant MBNL1 fused to the PL enzyme donor peptide (PL-MBNL1, where “PL” is the commercial “ProLabel” enzyme donor peptide) (DiscoveRx PathHunter ProLabel Detection kit) in the presence of varying concentrations of small molecule inhibitor. The Enzyme Acceptor (EA-β-galactosidase) complement was then added, and the activity of the resulting plate—(CUG)109 bound (PL-MBNL1)-(EA-β-galactosidase) activity was monitored via a chemiluminsecent substrate. Only the EA-β-Gal bound to the PL-MBNL1 is capable of performing the luminescent reaction and, as such, any luminescence correlates to the amount of MBNL1 bound to the (CUG)109 immobilized on the plate. Wells lacking (CUG)109 RNA served as a background measure of non-specific luminescence and were subtracted from each experiment to yield a 0% bound value. Wells containing no small molecule inhibitor added served as 100% bound. […]

[2] = test system: HIV-1 frameshift-inducing RNA stem-loop; assay: Resin-bead fluorescence microscopy screen (RBDCC) with Cy3-labeled RNA; type: binding; conditions: x-y: x resin-bound, y solution phase; 500 nM RNA stem-loop, 72 hours, 50 msec exposure
Procedure: First, as a control, 450 beads (150 of each size, 3 beads/compound, 387 nmol total) were placed in a 1.5 ml solid phase reaction vessel. To this was added a 1 ml solution of 1 μM RNA-Cy3 in phosphate buffer. This solution was agitated for 3 hours on a LabQuake™ rotator. After such time, the solution was drained by vacuum and washed three times with buffer (1 ml, 1 min. each). After washing, the resin was suspended in 2 ml buffer and placed in a Petri dish.
Next, RBDCC experiments were run in quadruplet. […] After such time, the solution was removed from 1 of the 4 experiments and the resin was washed with buffer, plated with 2 ml buffer, and analyzed by fluorescence microscopy as described above. […]
1, 2, and 3 were individually synthesized on TentaGel (0.86 nmol/bead), and equilibrated as described above in separate vessels containing only 1, 2, or 3 solution phase monomers and 500 nM RNA stem-loop, half the concentration used in the initial screen. After 72 hours the resin was washed in a manner identical to the conditions of screen number 4 (i.e., the highest stringency screen) and analyzed by fluorescence microscopy (50 msec. exposure) (see FIGS. 6A-I).

[3] = target: HIV-1 frameshift regulatory RNA sequence (Seq I, SEQ ID NO:1); assay: SPR binding of immobilized dimers to RNA; conditions: read-out: dissociation constant (Kd), affinity to the HIV-1 frameshift regulatory RNA sequence
Procedure: (§1) Graphical analysis of Surface Plasmon Resonance (SPR) data was carried out using DeltaGraph (Rockware Inc.). SPR analysis was conducted on a Reichert SR7000 refractometer using Reichert gold sensor slides that consist of a mixed self-assembled monolayer of thiol-PEG-alcohols and thio-PEG-carboxylic acids (˜9:1; PEG=polyethylene glycol). Amine functionalized small molecules were attached by […]/EDC coupling to the carboxy termini of the surface. After activating the monolayer, molecules were covalently attached through the addition of a 1 mg/mL solution of molecule in a sodium acetate buffer (20 mM, pH=5.5). Unreacted activated esters were quenched through the addition of ethanolamine. […]
To confirm this hypothesis, dissociation constants (Kd) were measured for dimers 1-1 and 1-3 by SPR (FIG. 7A) (Whitney et al., “Templated Ligand Assembly by Using G-quadruplex DNA and Dynamic Covalent Chemistry,” Angew. Chem. Int. Ed. 43:1143-1146 (2004); Lacy et al., “Influence of a Terminal Formamido Group on the Sequence Recognition of DNA by Polyamides,” J. Am. Chem. Soc. 124:2153-2163 (2002); Carrasco et al., “DNA Sequence Recognition by the Indolocarbazole Antitumor Antibiotic AT2433-B1 and Its Diastereoisomer,” Nucleic Acids Res. 30:1774-1781 (2002), each of which is hereby incorporated by reference in its entirety).

[4] = target: DNA sequence homologous to I (Seq II, SEQ ID NO:2); assay: SPR binding specificity, Seq II
Procedure: as §1, with “ethanolamine. A flow rate of 10 μL/min and injection volumes of 150 μL was used throughout the experiment. RNA solutions were made to be 15.3 nM, 62.5 nM, 250 nM, 500 nM, 1 μM, 2 μM, 10 μM, and 50 μM.” for “ethanolamine.”
(§2) Specificity was assessed by measuring the affinity of 1-1 to three other oligonucleotides: the DNA sequence homologous to I (Seq II, FIG. 7C, SEQ ID NO:2), the alternate RNA stem-loop (Seq III, FIG. 7D, SEQ ID NO:3) (Karan et al., “RNA-Selective Coordination Complexes Identified via Dynamic Combinatorial Chemistry,” J. Am. Chem. Soc. 123:7455-7456 (2001), which is hereby incorporated by reference in its entirety), and an RNA stem loop with an altered loop sequence (Seq IV, FIG. 7E, SEQ ID NO:4).

[5] = target: RNA stem loop with an altered loop sequence (Seq IV, SEQ ID NO:4); assay: SPR binding specificity, Seq IV; conditions: read-out: affinity for sequence IV
Procedure: as §1, with “ethanolamine. A flow rate of 10 μL/min and injection volumes of 150 μL was used throughout the experiment. RNA solutions were made to be 15.3 nM, 62.5 nM, 250 nM, 500 nM, 1 μM, 2 μM, 10 μM, and 50 μM.” for “ethanolamine.”
as §2

## CCc1nc2ccccc2cc1C(=O)N[C@@H](CSSC[C@H](NC(=O)c1cc2ccccc2nc1CC)C(=O)N1CCC[C@H]1C(=O)N[C@@H](Cc1ccccc1)C(=O)NCCCN)C(=O)N1CCC[C@H]1C(=O)N[C@@H](Cc1ccccc1)C(=O)NCCCN [dimer 1-1]
[1]
  Ki, inhibition of the (CUG)n MBNL1 interaction: do not show any inhibitory effect
[2]
  affinity for the RNA stem-loop by bead fluorescence intensity: highest affinity
[3]
  Kd: 1900 nM
[4]
  affinity for sequence II: no measurable affinity
[5]
  Kd: > 90000 nM
